Measured values as given in patent US9296757B2, “Substituted benzothienopyrimidines” (BAYER PHARMA AKTIENGESELLSCHAFT, priority 2012, dated 2016).

biological target: human full-length MKNK1 (Homo sapiens (Human), UniProt Q9BUB5, T344D); test: MKNK1 kinase high ATP assay (TR-FRET); type: biochemical; settings: high ATP (2 mM final), 15 min preincubation with enzyme
Description: MKNK1-inhibitory activity at high ATP of compounds of the present invention after their preincubation with MKNK1 was quantified employing the TR-FRET-based MKNK1 high ATP assay as described in the following paragraphs.
A recombinant fusion protein of Glutathione-S-Transferase (GST, N-terminally) and human full-length MKNK1 (amino acids 1-424 and T344D of accession number BAA 19885.1), expressed in insect cells using baculovirus expression system and purified via glutathione sepharose affinity chromatography, was purchased from Carna Biosciences (product no 02-145) and used as enzyme. As substrate for the kinase reaction the biotinylated peptide biotin-Ahx-IKKRKLTRRKSLKG (C-terminus in amide form) was used, which can be purchased e.g. from the company Biosyntan (Berlin-Buch, Germany).
For the assay 50 nL of a 100 fold concentrated solution of the test compound in DMSO was pipetted into a black low volume 384 well microtiter plate (Greiner Bio-One, Frickenhausen, Germany), 2 μL of a solution of MKNK1 in aqueous assay buffer [50 mM HEPES pH 7.5, 5 mM MgCl2, 1.0 mM dithiothreitol, 0.005% (v/v) Nonidet-P40 (Sigma)] was added and the mixture was incubated for 15 min at 22° C. to allow pre-binding of the test compounds to the enzyme before the start of the kinase reaction. Then the kinase reaction was started by the addition of 3 μL of a solution of adenosine-tri-phosphate (ATP, 3.3 mM=>final conc. in the 5 μL assay volume is 2 mM) and substrate (0.1 μM=>final conc. in the 5 μL assay volume is 0.06 μM) in assay buffer and the resulting mixture was incubated for a reaction time of 30 min at 22° C. The concentration of MKNK1 was adjusted depending of the activity of the enzyme lot and was chosen appropriate to have the assay in the linear range, typical concentrations were in the range of 0.003 μg/mL. The reaction was stopped by the addition of 5 μL of a solution of TR-FRET detection reagents (5 nM streptavidine-XL665 [Cisbio Bioassays, Codolet, France] and 1 nM anti-ribosomal protein S6 (pSer236)-antibody from Invitrogen [#44921G] and 1 nM LANCE EU-W1024 labeled ProteinG [Perkin-Elmer, product no. AD0071]) in an aqueous EDTA-solution (100 mM EDTA, 0.1% (w/v) bovine serum albumin in 50 mM HEPES pH 7.5).
The resulting mixture was incubated for 1 h at 22° C. to allow the formation of complex between the phosphorylated biotinylated peptide and the detection reagents. Subsequently the amount of phosphorylated substrate was evaluated by measurement of the resonance energy transfer from the Eu-chelate to the streptavidine-XL. Therefore, the fluorescence emissions at 620 nm and 665 nm after excitation at 350 nm were measured in a TR-FRET reader, e.g. a Rubystar (BMG Labtechnologies, Offenburg, Germany) or a Viewlux (Perkin-Elmer). The ratio of the emissions at 665 nm and at […] was taken as the measure for the amount of phosphorylated substrate. The data were normalised (enzyme reaction without inhibitor=0% inhibition, all other assay components but no enzyme=100% inhibition).

Chain of human full-length MKNK1 (Q9BUB5 other isoform, or with tags, fused parts or gaps T344D): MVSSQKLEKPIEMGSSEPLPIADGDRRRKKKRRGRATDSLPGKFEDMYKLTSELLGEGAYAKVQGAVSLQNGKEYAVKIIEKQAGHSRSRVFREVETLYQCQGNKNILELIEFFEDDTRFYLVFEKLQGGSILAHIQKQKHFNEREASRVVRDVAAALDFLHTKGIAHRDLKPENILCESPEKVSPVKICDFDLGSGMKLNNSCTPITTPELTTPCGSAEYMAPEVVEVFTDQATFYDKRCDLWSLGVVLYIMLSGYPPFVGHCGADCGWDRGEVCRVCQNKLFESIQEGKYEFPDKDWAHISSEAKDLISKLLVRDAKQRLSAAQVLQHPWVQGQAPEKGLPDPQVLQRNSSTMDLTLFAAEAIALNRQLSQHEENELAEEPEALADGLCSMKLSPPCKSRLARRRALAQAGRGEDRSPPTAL

**Q.** How did the IC50 turn out when `CC(C)C(=O)NCC1CCc2c(sc3ncnc(Nc4ccc5[nH]c(=O)sc5c4)c23)C1` (racemic) [Example 21, (RS)-2-Methyl-N-({4-[(2-oxo-2,3-dihydro-1,3-benzothiazol-6-yl)amino]-5,6,7,8-tetrahydro[1]benzothieno[2,3-d]pyrimidin-7-yl}methyl)propanamide] was run?
**A.** 37 nM

**Q.** Which IC50 does the source give for `CC(C)NC(=O)NCC1CCc2c(sc3ncnc(Nc4ccc5[nH]c(=O)sc5c4)c23)C1` (racemic) [Example 22, (RS)-1-({4-[(2-Oxo-2,3-dihydro-1,3-benzothiazol-6-yl)amino]-5,6,7,8-tetrahydro[1]benzothieno[2,3-d]pyrimidin-7-yl}methyl)-3-propan-2-ylurea] here?
**A.** 59 nM

**Q.** Which IC50 does the source give for `CC(C)OC(=O)NCC1CCc2c(sc3ncnc(Nc4ccc5[nH]c(=O)sc5c4)c23)C1` (racemic) [Example 24, (RS)-Propan-2-yl ({4-[(2-oxo-2,3-dihydro-1,3-benzothiazol-6-yl)amino]-5,6,7,8-tetrahydro[1]benzothieno[2,3-d]pyrimidin-7-yl}methyl)carbamate] here?
**A.** 62 nM

**Q.** How did the IC50 turn out when `CC(C)(O)C(=O)NCC1CCc2c(sc3ncnc(Nc4ccc5[nH]c(=O)sc5c4)c23)C1` (racemic) [Example 25, (RS)-2-Hydroxy-2-methyl-N-({4-[(2-oxo-2,3-dihydro-1,3-benzothiazol-6-yl)amino]-5,6,7,8-tetrahydro[1]benzothieno[2,3-d]pyrimidin-7-yl}methyl)propanamide] was run?
**A.** 42 nM

**Q.** With `CC(O)C(=O)NCC1CCc2c(sc3ncnc(Nc4ccc5[nH]c(=O)sc5c4)c23)C1` (racemic) [Example 26, (2RS)-2-Hydroxy-N-({(7RS)-4-[(2-oxo-2,3-dihydro-1,3-benzothiazol-6-yl)amino]-5,6,7,8-tetrahydro[1]benzothieno[2,3-d]pyrimidin-7-yl}methyl)propanamide] as the molecule, how does the IC50 read?
**A.** 84 nM

**Q.** With `CC(C)S(=O)(=O)NCC1CCc2c(sc3ncnc(Nc4ccc5[nH]c(=O)sc5c4)c23)C1` (racemic) [Example 28, (RS)—N-({4-[(2-Oxo-2,3-dihydro-1,3-benzothiazol-6-yl)amino]-5,6,7,8-tetrahydro[1]benzothieno[2,3-d]pyrimidin-7-yl}methyl)propane-2-sulfonamide] as the molecule, how does the IC50 read?
**A.** 139 nM

**Q.** For `CN1CCN(C(=O)C2CCc3c(sc4ncnc(Nc5ccc6[nH]c(=O)sc6c5)c34)C2)CC1` (racemic) [Example 29, (RS)-6-({7-[(4-Methylpiperazin-1-yl)carbonyl]-5,6,7,8-tetrahydro[1]benzothieno[2,3-d]pyrimidin-4-yl}amino)-1,3-benzothiazol-2(3H)-one], which IC50 is on record?
**A.** 48 nM

**Q.** How did the IC50 turn out when `CCOC(=O)C1CCc2c(sc3ncnc(Nc4cc5sc(=O)[nH]c5cc4OC)c23)C1` (racemic) [Example 30, (RS)-Ethyl 4-[(5-methoxy-2-oxo-2,3-dihydro-1,3-benzothiazol-6-yl)amino]-5,6,7,8-tetrahydro[1]benzothieno[2,3-d]pyrimidine-7-carboxylate] was run?
**A.** 15 nM

**Q.** With `COc1cc2[nH]c(=O)sc2cc1Nc1ncnc2sc3c(c12)CCC(C(=O)NC(C)C)C3` (racemic) [Example 31] as the molecule, how does the IC50 read?
**A.** 4 nM

**Q.** For `CCCCN(CC#N)C(=O)C1CCc2c(sc3ncnc(Nc4ccc5[nH]c(=O)sc5c4)c23)C1` (racemic) [Example 34, (RS)-N-butyl-N-(cyanonmethyl)-4-[(2-oxo-2,3-dihydro-1,3-benzothiazol-6-yl)amino]-5,6,7,8-tetrahydro[1]benzothieno[2,3-d]pyrimidine-7-carboxamide], which IC50 is on record?
**A.** 20 nM

**Q.** `CN(C)CCN(C)C(=O)C1CCc2c(sc3ncnc(Nc4ccc5[nH]c(=O)sc5c4)c23)C1` (racemic) [Example 35, (RS)-N-[2-(dimethylamino)ethyl]-N-methyl-4-[(2-oxo-2,3-dihydro-1,3-benzothiazol-6-yl)amino]-5,6,7,8-tetrahydro[1]benzothieno[2,3-d]pyrimidine-7-carboxamide] was tested. Which IC50 did it give?
**A.** 36 nM

**Q.** For `CN(C)CCN(Cc1ccccc1)C(=O)C1CCc2c(sc3ncnc(Nc4ccc5[nH]c(=O)sc5c4)c23)C1` (racemic) [Example 36, (RS)-N-benzyl-N-[2-(dimethylamino)ethyl]-4-[(2-oxo-2,3-dihydro-1,3-benzothiazol-6-yl)amino]-5,6,7,8-tetrahydro[1]benzothieno[2,3-d]pyrimidine-7-carboxamide], which IC50 is on record?
**A.** 9 nM

**Q.** How did the IC50 turn out when `CN1CCN(C(=O)C2CCc3c(sc4ncnc(Nc5ccc6[nH]c(=O)sc6c5)c34)C2)CC1` (racemic) [Example 37, (RS)-6-({7-[(4-methylpiperazin-1-yl)carbonyl]-5,6,7,8-tetrahydro[1]benzothieno[2,3-d]pyrimidin-4-yl}amino)-1,3-benzothiazol-2(3H)-one] was run?
**A.** 22 nM

**Q.** How did the IC50 turn out when `O=C(C1CCc2c(sc3ncnc(Nc4ccc5[nH]c(=O)sc5c4)c23)C1)N1CCN(c2ccccn2)CC1` (racemic) [Example 40, (RS)-6-[(7-{[4-(pyridin-2-yl)piperazin-1-yl]carbonyl}-5,6,7,8-tetrahydro[1]benzothieno[2,3-d]pyrimidin-4-yl)amino]-1,3-benzothiazol-2(3H)-one] was run?
**A.** 65 nM

**Q.** With `CCCCN(C)C(=O)C1CCc2c(sc3ncnc(Nc4ccc5[nH]c(=O)sc5c4)c23)C1` (racemic) [Example 41, (RS)-N-butyl-N-methyl-4-[(2-oxo-2,3-dihydro-1,3-benzothiazol-6-yl)amino]-5,6,7,8-tetrahydro[1]benzothieno[2,3-d]pyrimidine-7-carboxamide] as the molecule, how does the IC50 read?
**A.** 21 nM

**Q.** For `COc1ccc(N(C)C(=O)C2CCc3c(sc4ncnc(Nc5ccc6[nH]c(=O)sc6c5)c34)C2)cc1` (racemic) [Example 42, (RS)-N-(4-methoxyphenyl)-N-methyl-4-[(2-oxo-2,3-dihydro-1,3-benzothiazol-6-yl)amino]-5,6,7,8-tetrahydro[1]benzothieno[2,3-d]pyrimidine-7-carboxamide], which IC50 is on record?
**A.** 47 nM

**Q.** `O=C(CN1CCN(C(=O)C2CCc3c(sc4ncnc(Nc5ccc6[nH]c(=O)sc6c5)c34)C2)CC1)N1CCCC1` (racemic) [Example 43, (RS)-6-{[7-({4-[2-oxo-2-(pyrrolidin-1-yl)ethyl]piperazin-1-yl}carbonyl)-5,6,7,8-tetrahydro[1]benzothieno[2,3-d]pyrimidin-4-yl]amino}-1,3-benzothiazol-2(3H)-one] was tested. Which IC50 did it give?
**A.** 69 nM

**Q.** How did the IC50 turn out when `O=C(C1CCc2c(sc3ncnc(Nc4ccc5[nH]c(=O)sc5c4)c23)C1)N1CCN(Cc2ccc3c(c2)OCO3)CC1` (racemic) [Example 44, (RS)-6-[(7-{[4-(1,3-benzodioxol-5-ylmethyl)piperazin-1-yl]carbonyl}-5,6,7,8-tetrahydro[1]benzothieno[2,3-d]pyrimidin-4-yl)amino]-1,3-benzothiazol-2(3H)-one] was run?
**A.** 67 nM

**Q.** `O=C(C1CCc2c(sc3ncnc(Nc4ccc5[nH]c(=O)sc5c4)c23)C1)N1CCC1` (racemic) [Example 45, (RS)-6-{[7-(azetidin-1-ylcarbonyl)-5,6,7,8-tetrahydro[1]benzothieno[2,3-d]pyrimidin-4-yl]amino}-1,3-benzothiazol-2(3H)-one] was tested. Which IC50 did it give?
**A.** 70 nM

**Q.** `O=C(C1CCc2c(sc3ncnc(Nc4ccc5[nH]c(=O)sc5c4)c23)C1)N1CCCC1CO` (racemic) [Example 46, 6-{[(7RS)-7-{[(2RS)-2-(hydroxymethyl)pyrrolidin-1-yl]carbonyl}-5,6,7,8-tetrahydro[1]benzothieno[2,3-d]pyrimidin-4-yl]amino}-1,3-benzothiazol-2(3H)-one] was tested. Which IC50 did it give?
**A.** 35 nM

**Q.** How did the IC50 turn out when `CC(=O)N1CCN(C(=O)C2CCc3c(sc4ncnc(Nc5ccc6[nH]c(=O)sc6c5)c34)C2)CC1` (racemic) [Example 47, (RS)-6-({7-[(4-acetylpiperazin-1-yl)carbonyl]-5,6,7,8-tetrahydro[1]benzothieno[2,3-d]pyrimidin-4-yl}amino)-1,3-benzothiazol-2(3H)-one] was run?
**A.** 47 nM

**Q.** For `CN(CCC#N)C(=O)C1CCc2c(sc3ncnc(Nc4ccc5[nH]c(=O)sc5c4)c23)C1` (racemic) [Example 48, (RS)-N-(2-cyanoethyl)-N-methyl-4-[(2-oxo-2,3-dihydro-1,3-benzothiazol-6-yl)amino]-5,6,7,8-tetrahydro[1]benzothieno[2,3-d]pyrimidine-7-carboxamide], which IC50 is on record?
**A.** 65 nM
